Test results from ChEMBL document CHEMBL3046559, “Sterile oat (Avena sterilis L.) cross-resistance profile to ACCase-inhibiting herbicides in Greece” (2012).

Tests used:
Type in all cases: functional
Avena sterilis [1] = experiment: Herbicidal activity against Avena sterilis accession P09 assessed as weed survival at 1 times field recommended herbicide dose
Avena sterilis [2] = experiment: Herbicidal activity against Avena sterilis accession P01 assessed as weed survival at 8 times field recommended herbicide dose
Avena sterilis [3] = experiment: Herbicidal activity against Avena sterilis accession P20 assessed as weed survival at 1 times field recommended herbicide dose
Avena sterilis [4] = experiment: Herbicidal activity against Avena sterilis accession P11 assessed as weed survival at 32 times field recommended herbicide dose
Avena sterilis [5] = experiment: Herbicidal activity against Avena sterilis accession P22 assessed as weed survival at 1 times field recommended herbicide dose
Avena sterilis [6] = experiment: Herbicidal activity against Avena sterilis accession P08 assessed as weed survival at 32 times field recommended herbicide dose
Avena sterilis [7] = experiment: Herbicidal activity against Avena sterilis accession P02 assessed as weed survival at 8 times field recommended herbicide dose
Avena sterilis [8] = experiment: Herbicidal activity against Avena sterilis accession P05 assessed as weed survival at 16 times field recommended herbicide dose
Avena sterilis [9] = experiment: Herbicidal activity against Avena sterilis accession P17 assessed as weed survival at 4 times field recommended herbicide dose
Avena sterilis [10] = experiment: Herbicidal activity against Avena sterilis accession P21S assessed as induction of weed mortality
Avena sterilis [11] = experiment: Herbicidal activity against Avena sterilis accession P04 assessed as weed survival at 16 times field recommended herbicide dose
Avena sterilis [12] = experiment: Herbicidal activity against Avena sterilis accession P20 assessed as induction of weed mortality
Avena sterilis [13] = experiment: Herbicidal activity against Avena sterilis accession P13S assessed as weed survival at 1/16 times field recommended herbicide dose
Avena sterilis [14] = experiment: Herbicidal activity against Avena sterilis accession P03 assessed as weed survival at 8 times field recommended herbicide dose
Avena sterilis [15] = experiment: Herbicidal activity against Avena sterilis accession P15 assessed as weed survival at 4 times field recommended herbicide dose
Avena sterilis [16] = experiment: Herbicidal activity against Avena sterilis accession P07 assessed as weed survival at 16 times field recommended herbicide dose
Avena sterilis [17] = experiment: Herbicidal activity against Avena sterilis accession P15 assessed as induction of weed mortality
Avena sterilis [18] = experiment: Herbicidal activity against Avena sterilis accession P12 assessed as weed survival at 32 times field recommended herbicide dose
Avena sterilis [19] = experiment: Herbicidal activity against Avena sterilis accession P09 assessed as weed survival at 4 times field recommended herbicide dose
Avena sterilis [20] = experiment: Herbicidal activity against Avena sterilis accession P18 assessed as weed survival at 32 times field recommended herbicide dose
Avena sterilis [21] = experiment: Herbicidal activity against Avena sterilis accession P03 assessed as induction of weed mortality
Avena sterilis [22] = experiment: Herbicidal activity against Avena sterilis accession P10S assessed as weed survival at 1 times field recommended herbicide dose
Avena sterilis [23] = experiment: Herbicidal activity against Avena sterilis accession P13S assessed as weed survival at 1/8 times field recommended herbicide dose
Avena sterilis [24] = experiment: Herbicidal activity against Avena sterilis accession P03 assessed as weed survival at 4 times field recommended herbicide dose
Avena sterilis [25] = experiment: Herbicidal activity against Avena sterilis accession P16 assessed as weed survival at 4 times field recommended herbicide dose
Avena sterilis [26] = experiment: Herbicidal activity against Avena sterilis accession P08 assessed as weed survival at 1 times field recommended herbicide dose
Avena sterilis [27] = experiment: Herbicidal activity against Avena sterilis accession P14 assessed as weed survival at 16 times field recommended herbicide dose
Avena sterilis [28] = experiment: Herbicidal activity against Avena sterilis accession P19S assessed as induction of weed mortality
Avena sterilis [29] = experiment: Herbicidal activity against Avena sterilis accession P22 assessed as induction of weed mortality
Avena sterilis [30] = experiment: Herbicidal activity against Avena sterilis accession P05 assessed as weed survival at 32 times field recommended herbicide dose
Avena sterilis [31] = experiment: Herbicidal activity against Avena sterilis accession P12 assessed as weed survival at 8 times field recommended herbicide dose
Avena sterilis [32] = experiment: Herbicidal activity against Avena sterilis accession P05 assessed as weed survival at 1 times field recommended herbicide dose
Avena sterilis [33] = experiment: Herbicidal activity against Avena sterilis accession P20 assessed as weed survival at 4 times field recommended herbicide dose
Avena sterilis [34] = experiment: Herbicidal activity against Avena sterilis accession P08 assessed as induction of weed mortality
Avena sterilis [35] = experiment: Herbicidal activity against Avena sterilis accession P02 assessed as weed survival at 4 times field recommended herbicide dose
Avena sterilis [36] = experiment: Herbicidal activity against Avena sterilis accession P11 assessed as weed survival at 1 times field recommended herbicide dose
Avena sterilis [37] = experiment: Herbicidal activity against Avena sterilis accession P04 assessed as weed survival at 4 times field recommended herbicide dose
Avena sterilis [38] = experiment: Herbicidal activity against Avena sterilis accession P19S assessed as weed survival at 1/8 times field recommended herbicide dose
Avena sterilis [39] = experiment: Herbicidal activity against Avena sterilis accession P17 assessed as weed survival at 8 times field recommended herbicide dose
Avena sterilis [40] = experiment: Herbicidal activity against Avena sterilis accession P08 assessed as weed survival at 8 times field recommended herbicide dose
Avena sterilis [41] = experiment: Herbicidal activity against Avena sterilis accession P20 assessed as weed survival at 16 times field recommended herbicide dose
Avena sterilis [42] = experiment: Herbicidal activity against Avena sterilis accession P17 assessed as weed survival at 32 times field recommended herbicide dose
Avena sterilis [43] = experiment: Herbicidal activity against Avena sterilis accession P04 assessed as induction of weed mortality
Avena sterilis [44] = experiment: Herbicidal activity against Avena sterilis accession P01 assessed as weed survival at 32 times field recommended herbicide dose
Avena sterilis [45] = experiment: Herbicidal activity against Avena sterilis accession P17 assessed as induction of weed mortality
Avena sterilis [46] = experiment: Herbicidal activity against Avena sterilis accession P01 assessed as weed survival at 16 times field recommended herbicide dose
Avena sterilis [47] = experiment: Herbicidal activity against Avena sterilis accession P10S assessed as weed survival at 1/16 times field recommended herbicide dose
Avena sterilis [48] = experiment: Herbicidal activity against Avena sterilis accession P12 assessed as weed survival at 4 times field recommended herbicide dose
Avena sterilis [49] = experiment: Herbicidal activity against Avena sterilis accession P14 assessed as weed survival at 32 times field recommended herbicide dose
Avena sterilis [50] = experiment: Herbicidal activity against Avena sterilis accession P13S assessed as weed survival at 1/4 times field recommended herbicide dose
Avena sterilis [51] = experiment: Herbicidal activity against Avena sterilis accession P03 assessed as weed survival at 32 times field recommended herbicide dose
Avena sterilis [52] = experiment: Herbicidal activity against Avena sterilis accession P13S assessed as induction of weed mortality
Avena sterilis [53] = experiment: Herbicidal activity against Avena sterilis accession P10S assessed as weed survival at 1/4 times field recommended herbicide dose
Avena sterilis [54] = experiment: Herbicidal activity against Avena sterilis accession P09 assessed as weed survival at 32 times field recommended herbicide dose
Avena sterilis [55] = experiment: Herbicidal activity against Avena sterilis accession P14 assessed as induction of weed mortality
Avena sterilis [56] = experiment: Herbicidal activity against Avena sterilis accession P15 assessed as weed survival at 8 times field recommended herbicide dose
Avena sterilis [57] = experiment: Herbicidal activity against Avena sterilis accession P03 assessed as weed survival at 16 times field recommended herbicide dose
Avena sterilis [58] = experiment: Herbicidal activity against Avena sterilis accession P02 assessed as weed survival at 1 times field recommended herbicide dose

Compound `COCc1cnc(C2=NC(C)(C(C)C)C(=O)N2)c(C(=O)O)c1` (stereo unspecified) [IMAZAMOX] has a Survival (Avena sterilis [1]) of 0%, a Survival (Avena sterilis [2]) of 0% and a Survival (Avena sterilis [3]) of 0%. The Survival (Avena sterilis [4]) was 0%, the Survival (Avena sterilis [5]) was 0% and the Survival (Avena sterilis [6]) was 0%. The Survival (Avena sterilis [7]) was 0%, the Survival (Avena sterilis [8]) was 0% and the Survival (Avena sterilis [9]) was 0%. It also gave a GR50 (Avena sterilis [10]) of 14 gAi/ha, a Survival (Avena sterilis [11]) of 0% and a GR50 (Avena sterilis [12]) of less than 50 gAi/ha. For the same compound, the Survival (Avena sterilis [13]) was 80%, the Survival (Avena sterilis [14]) was 0% and the Survival (Avena sterilis [15]) was 0%. The Survival (Avena sterilis [16]) was 0%, the GR50 (Avena sterilis [17]) was less than 50 gAi/ha and the Survival (Avena sterilis [18]) was 0%. For the same compound, the Survival (Avena sterilis [19]) was 0%, the Survival (Avena sterilis [20]) was 0% and the GR50 (Avena sterilis [21]) was less than 50 gAi/ha. For the same compound, the Survival (Avena sterilis [22]) was 0%, the Survival (Avena sterilis [23]) was 50% and the Survival (Avena sterilis [24]) was 0%. It also gave a Survival (Avena sterilis [25]) of 0%, a Survival (Avena sterilis [26]) of 3% and a Survival (Avena sterilis [27]) of 0%. For the same compound, the GR50 (Avena sterilis [28]) was 14 gAi/ha, the GR50 (Avena sterilis [29]) was less than 50 gAi/ha and the Survival (Avena sterilis [30]) was 0%. The Survival (Avena sterilis [31]) was 0%, the Survival (Avena sterilis [32]) was 0% and the Survival (Avena sterilis [33]) was 0%. The GR50 (Avena sterilis [34]) was less than 50 gAi/ha, the Survival (Avena sterilis [35]) was 0% and the Survival (Avena sterilis [36]) was 0%. The Survival (Avena sterilis [37]) was 0%, the Survival (Avena sterilis [38]) was 80% and the Survival (Avena sterilis [39]) was 0%. The Survival (Avena sterilis [40]) was 0%, the Survival (Avena sterilis [41]) was 0% and the Survival (Avena sterilis [42]) was 0%. The GR50 (Avena sterilis [43]) was less than 50 gAi/ha, the Survival (Avena sterilis [44]) was 0% and the GR50 (Avena sterilis [45]) was less than 50 gAi/ha. For the same compound, the Survival (Avena sterilis [46]) was 0%, the Survival (Avena sterilis [47]) was 80% and the Survival (Avena sterilis [48]) was 0%. For the same compound, the Survival (Avena sterilis [49]) was 0%, the Survival (Avena sterilis [50]) was 40% and the Survival (Avena sterilis [51]) was 0%. The GR50 (Avena sterilis [52]) was 8 gAi/ha, the Survival (Avena sterilis [53]) was 20% and the Survival (Avena sterilis [54]) was 0%. It also gave a GR50 (Avena sterilis [55]) of less than 50 gAi/ha, a Survival (Avena sterilis [56]) of 0% and a Survival (Avena sterilis [57]) of 0%. The Survival (Avena sterilis [58]) was 3%.
In the case of `CCc1cc(C)cc(CC)c1-c1c(OC(=O)C(C)(C)C)n2n(c1=O)CCOCC2` [PINOXADEN], the Survival (Avena sterilis [1]) is reported as 0%, the Survival (Avena sterilis [2]) is reported as 0% and the Survival (Avena sterilis [3]) is reported as 63%. The Survival (Avena sterilis [4]) was 0%, the Survival (Avena sterilis [5]) was 20% and the Survival (Avena sterilis [6]) was 0%. It also gave a Survival (Avena sterilis [7]) of 0%, a Survival (Avena sterilis [8]) of 0% and a Survival (Avena sterilis [9]) of 0%. It also gave a GR50 (Avena sterilis [10]) of 5.8 gAi/ha, a Survival (Avena sterilis [11]) of 0% and a GR50 (Avena sterilis [12]) of 42 gAi/ha. For the same compound, the Survival (Avena sterilis [13]) was 97%, the Survival (Avena sterilis [14]) was 0% and the Survival (Avena sterilis [15]) was 0%. The Survival (Avena sterilis [16]) was 0%, the GR50 (Avena sterilis [17]) was less than 40 gAi/ha and the Survival (Avena sterilis [18]) was 0%. The Survival (Avena sterilis [19]) was 0%, the Survival (Avena sterilis [20]) was 0% and the GR50 (Avena sterilis [21]) was less than 40 gAi/ha. For the same compound, the Survival (Avena sterilis [22]) was 0%, the Survival (Avena sterilis [23]) was 20% and the Survival (Avena sterilis [24]) was 3%. For the same compound, the Survival (Avena sterilis [25]) was 0%, the Survival (Avena sterilis [26]) was 20% and the Survival (Avena sterilis [27]) was 0%. It also gave a GR50 (Avena sterilis [28]) of 6.6 gAi/ha, a GR50 (Avena sterilis [29]) of less than 40 gAi/ha and a Survival (Avena sterilis [30]) of 0%. It also gave a Survival (Avena sterilis [31]) of 0%, a Survival (Avena sterilis [32]) of 20% and a Survival (Avena sterilis [33]) of 0%. It also gave a GR50 (Avena sterilis [34]) of less than 40 gAi/ha, a Survival (Avena sterilis [35]) of 0% and a Survival (Avena sterilis [36]) of 0%. For the same compound, the Survival (Avena sterilis [37]) was 20%, the Survival (Avena sterilis [38]) was 50% and the Survival (Avena sterilis [39]) was 0%. It also gave a Survival (Avena sterilis [40]) of 0%, a Survival (Avena sterilis [41]) of 0% and a Survival (Avena sterilis [42]) of 0%. For the same compound, the GR50 (Avena sterilis [43]) was 74 gAi/ha, the Survival (Avena sterilis [44]) was 0% and the GR50 (Avena sterilis [45]) was less than 40 gAi/ha. For the same compound, the Survival (Avena sterilis [46]) was 0%, the Survival (Avena sterilis [47]) was 97% and the Survival (Avena sterilis [48]) was 0%. The Survival (Avena sterilis [49]) was 0%, the Survival (Avena sterilis [50]) was 3% and the Survival (Avena sterilis [51]) was 0%. The GR50 (Avena sterilis [52]) was 4.1 gAi/ha, the Survival (Avena sterilis [53]) was 0% and the Survival (Avena sterilis [54]) was 0%. For the same compound, the GR50 (Avena sterilis [55]) was less than 40 gAi/ha, the Survival (Avena sterilis [56]) was 0% and the Survival (Avena sterilis [57]) was 0%. It also gave a Survival (Avena sterilis [58]) of 20%.
